Key:
[1] = Determination of pH stability: Ganz whiteness of bleached cotton padded with the stored solutions; conditions: liquor pick-up 65%
Method: (§1) The sensitivity of the test compounds (102)-(104) of the invention and of the commercial compound (103) to acidic pH values is evaluated in a bath and on the cotton fabric.
(§2) A solution containing 0.8 g/l of the test compound (as active ingredient) in drinking water (approximately 11° German hardness) is prepared and separate samples of the solution are adjusted to different pH values and stored in the dark at 25° C. The appearance of each sample is assessed immediately and also after 1, 2 and 4 hours storage.
Following the 4 hour appearance assessment, separate samples of bleached cotton are padded with the respective solutions (liquor pick-up 65%). The fabric samples are dried at 70° C. for 20 minutes and the whiteness values determined according to the method of Ganz.

[2] = Determination of pH stability: appearance of 0.8 g/l solution at different pH values on storage; assay type: physicochemical; conditions: 0.8 g/l in drinking water, dark, 25° C.
Method: as §1, §2

[3] = Determination of fibre affinity: Ganz whiteness of bleached cotton after exhaust treatment at 95° C.; conditions: for Whiteness Value: Ganz whiteness, 0.2% whitener on fibre weight, exhaust method, liquor ratio 1:40, up to 95° C., measure of affinity to cotton
Method: Various bleached cotton swatches are treated by the exhaust method in an aqueous bath having the following composition: • 0.2% of test fluorescent whitener (100% active substance), based on the weight of the fibre, • 0.5 ml/l Ultravon EL™, • 20 ml/l 3% aqueous sodium hydroxide solutions, • 2 ml/l 10% aqueous sodium silicate solution and • 3 ml/l 35% aqueous hydrogen peroxide solution.
The fluorescent whiteners used were compounds (102)-(104) of the present invention and a commercial product having the formula [drawing 11]
The treatment is conducted at a liquor ratio of 1:40 for 30 minutes at from 25 to 95° C., then for a further 60 minutes at 95° C. and, finally, cooled to 30° C. The swatches are removed from the treatment bath, rinsed and dried at 60° C.
Due to the high application temperature of 95° C., the tested compounds must have high affinity to cotton to provide high whiteness levels. Consequently, the whiteness values are a suitable measure of affinity, i.e. high whiteness corresponds to high affinity.
Whiteness was measured according to the method of Ganz, which is described in detail in the Ciba-Geigy Review, 1973/1 and also in the article “Whiteness Measurement”, ISCC Conference on Fluorescence and the Colorimetry of Fluorescent Materials, Williamsburg, February 1972, published in the Journal of Color and Appearance, 1, No. 5 (1972).

[4] = cotton padded with pH 3 solution after 4 hours storage
[5] = cotton padded with pH 4 solution after 4 hours storage
[6] = cotton padded with pH 5 solution after 4 hours storage
[7] = cotton padded with pH 6 solution after 4 hours storage
[8] = cotton padded with pH 7 solution after 4 hours storage

Row | SMILES | Whiteness [1, 4] | Whiteness [1, 5] | Whiteness [1, 6] | Whiteness [1, 7] | Whiteness [1, 8] | Appearance of solution ([2]; 1 hour, pH 4) | Appearance of solution ([2]; 1 hour, pH 5) | Appearance of solution ([2]; 1 hour, pH 6) | Appearance of solution ([2]; 1 hour, pH 7) | Appearance of solution ([2]; 2 hours, pH 4) | Appearance of solution ([2]; 2 hours, pH 5) | Appearance of solution ([2]; 2 hours, pH 6) | Appearance of solution ([2]; 2 hours, pH 7) | Appearance of solution ([2]; 4 hours, pH 4) | Appearance of solution ([2]; 4 hours, pH 5) | Appearance of solution ([2]; 4 hours, pH 6) | Appearance of solution ([2]; 4 hours, pH 7) | Appearance of solution ([2]; Immediate, pH 5) | Appearance of solution ([2]; Immediate, pH 6) | Appearance of solution ([2]; Immediate, pH 7) | also measured
1 | CC(O)CN(CC(C)O)c1nc(Nc2ccc(S(=O)(=O)CCO)cc2)nc(Nc2ccc(/C=C/c3ccc(Nc4nc(Nc5ccc(S(=O)(=O)CCO)cc5)nc(N(CC(C)O)CC(C)O)n4)cc3S(=O)(=O)[O-])c(S(=O)(=O)[O-])c2)n1.[Na+].[Na+] (stereo not drawn) [(102)] | 171 | 192 | 194 | 193 | 193 | clear | clear | clear | clear | clear | clear | clear | clear | clear | clear | clear | clear | clear | clear | clear | Appearance of solution ([2]; Immediate, pH 4): clear; Whiteness Value [3]: 234; Affinity to the fibre (judged from whiteness value) ([3]; whiteness only slightly lower than that of the conventional commercial FWA): high affinity to the fibre
2 | O=S(=O)([O-])c1cc(Nc2nc(Nc3ccc(S(=O)(=O)CCO)cc3)nc(N(CCO)CCO)n2)ccc1/C=C/c1ccc(Nc2nc(Nc3ccc(S(=O)(=O)CCO)cc3)nc(N(CCO)CCO)n2)cc1S(=O)(=O)[O-].[Na+].[Na+] [(103)] | 53 | 115 | 160 | 184 | 186 | cloudy | clear | clear | clear | cloudy | clear | clear | clear | cloudy | clear | clear | clear | clear | clear | clear | Appearance of solution ([2]; 1 hour, pH 3): cloudy; Appearance of solution ([2]; 2 hours, pH 3): cloudy; Appearance of solution ([2]; 4 hours, pH 3): cloudy; Appearance of solution ([2]; Immediate, pH 3): cloudy; Whiteness Value [3]: 224

From patent US6929667B2, “Method for the fluorescent whitening of cotton” (Ciba Specialty Chemicals Corporation, priority 2000, dated 2005)
